Results on 2 molecules are retold here after patent publication US20150164874A1, “PIRFENIDONE AND ANTI-FIBROTIC THERAPY IN SELECTED PATIENTS” (INTERMUNE, INC., priority 2011, published 2015).

For assay [1], the system named is IPF patients with mild to moderate impairment in lung function. In words: Phase 3 trials Study 1 and Study 2 of pirfenidone vs placebo in IPF patients, retrospective re-analysis (ITT vs novel selection criteria). The assay is classed as in vivo, human. The conditions noted are these: for 6MWT change from baseline, Relative Δ / % DLco change from baseline, Relative Δ / % FVC ≧10% decline, Relative Δ / Progression-free survival, time to event HR / SpO2 During 6MWT change from baseline, Relative Δ / Survival, time to event HR / UCSD SOBQ (dyspnea) change from baseline, Relative Δ / Worsening IPF, time to event HR: Study 1 and Study 2 pooled, pirfenidone vs placebo; for Interaction with Treatment: Group with Greater Pirfenidone Effect: multivariate model of FVC decline at 72 weeks. The text has this:
Two multinational, randomized, double-blind, placebo-controlled Phase 3 trials, referred to herein as Study 1 and Study 2, were designed and performed to evaluate the safety and efficacy of pirfenidone in IPF patients with mild to moderate impairment in lung function. Both trials enrolled patients in North America, Europe and Australia with roughly 75% of the total 779 patients enrolled in North America.
Study 1 enrolled a total of 344 patients. Patients were randomized 1:1 to receive a total daily dose of 2403 mg pirfenidone, or placebo. Study 2 enrolled a total of 435 patients, and patients were randomized 2:2:1 to receive a total daily dose of 2403 mg pirfenidone, or placebo, or a total daily dose of 1197 mg pirfenidone, respectively. The total daily dose of pirfenidone was administered in three divided doses, three times per day.
If the surgical lung biopsy or HRCT scans were ambiguous, the slides or HRCT images were evaluated by an adjudicator for a second opinion.
Exclusion criteria included: FEV1/FVC<0.7 after bronchodilator administration, bronchodilator response, RV>120%, history of significant environmental exposure known to cause pulmonary fibrosis, and diagnosis of connective tissue disease or other known explanation of interstitial lung disease (ILD).
Enrollment of both trials was completed in less than 13 months following randomization of the first patient into the program in late April 2006. Ninety-seven percent (97%) of all patients in the two studies who were living and had not received a lung transplant, completed their Week 72 study visit.
The primary endpoint of both trials was change in percent predicted Forced Vital Capacity (FVC) after 72 weeks of treatment evaluated with a nonparametric rank ANCOVA analysis. The pre-specified secondary endpoints monitored during the studies included: (a) Time to worsening of IPF, defined as time to acute IPF exacerbation, IPF-related death, lung transplant or respiratory hospitalization, whichever comes first; (b) Progression-free survival defined as time to the first occurrence of either of the following (as compared to the patient's baseline): (1) 10% absolute decline in percent predicted FVC, or (2) 15% absolute decline in percent predicted Hb-corrected DL(CO), or (3) death (in the case of FVC or DL(CO), the decline must be confirmed at two consecutive visits at least 6 weeks apart); (c) Categorical assessment of absolute change from Baseline to Week 72 in percent predicted FVC; (d) Change from Baseline to Week 72 in dyspnea measured by the University of California at San Diego Shortness-of-Breath Questionnaire (UCSD SOBQ); (e) Change from Baseline to Week 72 in the percent predicted Hb-corrected DL(CO); (f) Change from Baseline to Week 72 in the worst oxygen saturation by pulse oximetry (SpO2) measurement observed during the Six-Minute Walk Test; (g) Change from Baseline to Week 72 in distance walked in the Six-Minute Walk Test (6MWT).
After the studies were completed, a retrospective multivariate model of data identified predictors of greater FVC decline at 72 weeks and variables that have a statistical interaction with pirfenidone treatment (i.e. the magnitude of the pirfenidone treatment effect is different at different levels of these variables).
Data from Study 1 and Study 2 were re-analyzed, selecting patients according to the following novel criteria instead of the original Intention To Treat (IIT) criteria:
(c) Time since IPF diagnosis >0.5 years and <48 months
Mean change in FVC in pirfenidone-treated vs. placebo-treated groups from Study 1 and Study 2, for the original patient population selected using the ITT criteria, is shown in FIG. 2A. When the patient population is instead selected using the novel criteria above, the mean change in FVC in pirfenidone-treated vs. placebo-treated groups for the patient is shown in FIG. 2B. Patients in both pirfenidone-treated and placebo-treated groups experienced a decline in mean % FVC from baseline. […]

For assay [2] the test system is unchanged. Briefly: Phase 3 study of Actimmune in 826 IPF patients, retrospective analysis of FVC progression. The assay is classed as in vivo, human. The conditions noted are these: Phase 3 study 2003-2007. The text has this: FIGS. 1A-1D depicts a analysis of FVC progression from a clinical trial involving a different drug, interferon gamma-lb, which is inert with respect to effect on efficacy outcomes, in 826 patients with IPF, when the patients are segregated according to % FVC (FIG. 1A), % DLco (FIG. 1B), time since IPF diagnosis (FIG. 1C) and FEV1/FVC ratio (FIG. 1D).
In a prior trial involving 826 patients, data regarding progression of FVC was collected as part of a randomized, double-blind, placebo-controlled Phase 3 study conducted from 2003-2007 that was designed to evaluate the safety and efficacy of Actimmune(R) in IPF patients with mild to moderate impairment in lung function.

The mark [3] stands for this setting: Study 1 and Study 2, novel criteria, week 72.
Where [4] appears, read: Study 1 and Study 2, original ITT criteria, week 48.
The mark [5] stands for this setting: Study 1 and Study 2, original ITT criteria, week 72.

`Cc1ccc(=O)n(-c2ccccc2)c1` [pirfenidone, 5-methyl-1-phenyl-2-(1H)-pyridone]: in assay [1] (Novel criteria, week 48), the “6MWT change from baseline, Relative Δ” value amounted to 64.2%; the “% DLco change from baseline, Relative Δ” value was 36.9%; the “% FVC ≧10% decline, Relative Δ” value amounted to 60.4%; the “Progression-free survival, time to event HR” value stood at 0.31. Further, in assay [1] (Novel criteria, week 48), the “SpO2 During 6MWT change from baseline, Relative Δ” value is listed as 62.3%; the “Survival, time to event HR” value came out at 0.16; the “UCSD SOBQ (dyspnea) change from baseline, Relative Δ” value is given as −46.5%; the “Worsening IPF, time to event HR” value was 0.75. For the same molecule, in assay [1] (Pooled ITT, week 48), the “6MWT change from baseline, Relative Δ” value was determined as 41%; the “% DLco change from baseline, Relative Δ” value was 16%; the “% FVC ≧10% decline, Relative Δ” value was 39%; the “Progression-free survival, time to event HR” value was 0.53. Moreover, in assay [1] (Pooled ITT, week 48), the “SpO2 During 6MWT change from baseline, Relative Δ” value came out at 21%; the “Survival, time to event HR” value is on record as 0.42; the “UCSD SOBQ (dyspnea) change from baseline, Relative Δ” value was −29%; the “Worsening IPF, time to event HR” value is listed as 0.80. Further, in assay [1] (Study 1 and Study 2, novel criteria (% FVC 50%-90%, FEV1/FVC >0.80, time since diagnosis >0.5 years and <48 months), week 48), the “absolute difference in mean change from baseline % FVC between pirfenidone-treated and placebo-treated groups” value amounted to 6.1%. Besides, in assay [1] (Study 1 and Study 2, novel criteria, week 48), the “relative difference in mean change from baseline % FVC between pirfenidone-treated and placebo-treated groups” value is listed as 63.3%. Moreover, in assay [1] (setting [3]), the “absolute difference in mean change from baseline % FVC between pirfenidone-treated and placebo-treated groups” value came out at 7.9%; the “relative difference in mean change from baseline % FVC between pirfenidone-treated and placebo-treated groups” value is 57.0%. Moreover, in assay [1] (setting [4]), the “absolute difference in mean change from baseline % FVC between pirfenidone-treated and placebo-treated groups” value was 3.3%; the “relative difference in mean change from baseline % FVC between pirfenidone-treated and placebo-treated groups” value is listed as 41.6%. For the same molecule, in assay [1] (setting [5]), the “absolute difference in mean change from baseline % FVC between pirfenidone-treated and placebo-treated groups” value was determined as 2.5%; the “relative difference in mean change from baseline % FVC between pirfenidone-treated and placebo-treated groups” value is on record as 22.8%. Moreover, in assay [1] (variable % FVC (90%), P-value 0.096), the “Interaction with Treatment: Group with Greater Pirfenidone Effect” value is given as “FVC <90%”. In addition, the “Interaction with Treatment: Group with Greater Pirfenidone Effect” value in assay [1] (variable Time since Diagnosis of IPF (0.5 yrs), P-value 0.043) is “Time >0.5 years”.

B1: Actimmune: a different drug, interferon gamma-lb, inert with respect to effect on efficacy outcomes in IPF (protein, UniProt P01579 24-161, looked up)
Interferon gamma: QDPYVKEAENLKKYFNAGHSDVADNGTLFLGILKNWKEESDRKIMQSQIVSFYFKLFKNFKDDQSIQKSVETIKEDMNVKFFNSNKKKRDDFEKLTNYSVTDLNVQRKAIHELIQVMAELSPAAKTGKRKRSQMLFRG
For B1, the “effect on FVC progression / efficacy outcomes” value in assay [2] is on record as “does not have an effect on these outcomes”.
